“And” between values parts separate entries of the source, which are not always exact repeats. Equal values may be shown once.
Tested on: INS-1E rat beta cells, no cytokines, CellTiter-Glo ATP, 48 h
Assay: ATP level change in INS-1E without cytokines, dose response, counter-screen for beta-cell apoptosis protection project, INS-1E rat cells, ATP luminescence, cherry pick (AID 463229)

| SMILES | AC50 |
| --- | --- |
| CC[C@H](C)[C@@H](C(=O)NCCCCCCCCCCC(=O)N1CCN(C(=O)OC(C)(C)C)CC1)n1cc(CCCCCNC(=O)OC(C)(C)C)nn1 | 5.92 µM |
| CC1(C)C[C@@H]2C[C@@](C)(CN2C(=O)c2cc(COc3cccc(C(F)(F)F)c3)on2)C1 | 17 µM |
| O=C(N/N=C/c1cc(Cl)ccc1O)c1ccc(Br)cc1 | 4.07 µM |
| Cc1ccc(Nc2nc(NCc3ccco3)c3ccccc3n2)cc1 | 8.02 µM |
| CCCCCCCCn1c(=O)c(C(=O)OC)c(N)c2ccccc21 | 4.89 µM |
| NC(=O)c1c(-c2ccc(Cl)cc2Cl)csc1NC(=O)Cc1ccccc1 | 4.08 µM |
| O=[N+]([O-])c1c(Nc2ccccn2)cc(Cl)c2nonc12 | 7.39 µM |
| COc1ccc(CC(=O)Nc2nc(-c3ccc(F)c(F)c3)cs2)cc1OC | 7.2 µM |
| CCCCC(CC)CN=C(N)NC(N)=NCCCCCCN=C(N)NC(N)=NCC(CC)CCCC (stereo not given) | 2.35 µM |
| CC(=O)c1ccc(NC(=S)NC(C)c2ccc(Cl)cc2Cl)cc1 (stereo not given) | 21.1 µM |
| COc1ccc(/C=C/c2nc3ccccc3n2C)cc1 | 3.13 µM |
| O=C(N/N=C\c1cc(Br)ccc1O)c1ccc(S(=O)(=O)N2CCCCC2)cc1 | 3.54 µM |
| CC(=O)NC(c1ccccc1)c1cc(Cl)c2cccnc2c1O (stereo not given) | 6.26 µM |
| CC[C@H](C)Cc1cn([C@@H](CCCCNC(=O)OC(C)(C)C)C(=O)NCCCCCCCCCCC(=O)N2CCN(C(=O)OC(C)(C)C)CC2)nn1 | 20.2 µM |
| COc1ccccc1C(CCNCc1ccc(N(C)C)cc1)c1ccc(OC(C)C)cc1 (stereo not given) | 9.78 µM |
| O=C(Cc1ccc(Cl)cc1)c1c[nH]c(C(=O)NCc2cccnc2)c1 | 0.665 µM |
| CCCCCCCCCCn1ccc(=N)cc1 | 0.543 µM |
| C/C(=N\N1C(=O)c2ccccc2NC1c1ccccc1)c1ccccc1O (stereo not given) | 19.1 µM |
| O=C(Nc1nc2c(F)cc(F)cc2s1)c1ccccn1 | 6.37 µM |
| Cc1ccc(-c2cn(-c3ccc(SC(F)F)cc3)c3[n+]2CCC3)cc1 | 5.91 µM |
| CCCSc1nsc(NC(=O)Nc2ccc(F)cc2F)n1 | 6.99 µM |
| O=C(N/N=C/c1cc(Br)c(Br)s1)c1ccncc1 | 9.72 µM |
| COc1cc(CSc2nnnn2-c2ccc(C)cc2)cc(OC)c1OC | 4.46 µM |
| O=C(Nc1ccc(-c2csc(Nc3cccc(C(F)(F)F)c3)n2)cc1)c1cc([N+](=O)[O-])cc(C(F)(F)F)c1 | 7.63 µM |
| COc1ccc(NS(=O)(=O)c2ccc(-c3coc(C)n3)cc2)cc1OC | 4.39 µM |
| [O-][n+]1onc2c1CCc1c-2nn(-c2ccccc2Cl)[n+]1[O-] | 7.37 µM |
| CCCCCCCCCCOC(=O)Cn1c(COc2ccccc2)[n+](C)c2ccccc21 | 4.25 µM |
| O=C(N/N=C/c1ccccc1O)c1ccc2c(c1)OCO2 | 7.41 µM |

| SMILES | AC50 |
| --- | --- |
| CCCCS(=O)(=O)/C=C\C=C/S(=O)(=O)CCCC | 5.48 µM |
| CC1CCc2c(sc3nc(C4CC4)nc(N4CCN(C(=O)c5ccco5)CC4)c23)C1 (stereo not given) | 3.01 µM |
| COc1cccc(/C=N/NC(=O)c2c(C)nc3ccc(Cl)cn23)c1O | 3.81 µM |
| COc1cnc(-c2ccccn2)nc1N(C)C | 21.7 µM |
| Cc1ccc(-c2c(C#N)c(N)n3c(nc4ccccc43)c2C#N)cc1 | 4.1 µM |
| CCCCCc1ccc(OCCCC[n+]2cccc(C)c2)c(CCCCC)c1 | 2.1 µM |
| Oc1cccc(C(Nc2nccs2)c2ccc3cccnc3c2O)c1 (stereo not given) | 2.54 µM |
| COc1ccc(-n2c(-c3ccc(Cl)cc3)c[n+]3c2CCCCC3)cc1 | 1.6 µM |
| COc1cc2cc(C(=O)N3CCOCC3)cc(-c3ccc(C)cc3)c2cc1OC | 5.15 µM |
| CCC(=O)NC(c1ccccc1OC)c1ccc2cccnc2c1O (stereo not given) | 4.29 µM |
| CCC1(OC(=O)CN)C(=O)OCc2c1cc1n(c2=O)Cc2cc3ccccc3nc2-1 (stereo not given) | < 0.195 µM |
| CCCCCCCCNc1ncnc2ccccc12 | 0.384 µM |
| CCC1=NN(C(=O)c2cccc(Br)c2)C(O)(c2ccc(Br)cc2)C1 (stereo not given) | 9.79 µM |
| Oc1[nH]c2ccccc2c1N=NC(=S)N1CCOCC1 | 3.98 µM |
| Oc1ccc(N=Nc2ccc3c(c2)OCCO3)c2ncccc12 | 3.75 µM |
| Oc1c(Cl)cc(Cl)cc1/C=N/Nc1ncc(Br)cn1 | 3.94 µM |
| COc1ccccc1-n1c(-c2ccccc2)c[n+]2c1CCc1ccccc1-2 | 2.16 µM and 3.41 µM |
| COc1ccc(OC)c2sc(N(CCCN(C)C)C(=O)c3ccc(S(=O)(=O)N4CCc5ccccc5C4)cc3)nc12 | 2.23 µM |
| COc1ccc(NC(=O)/C(Cl)=C(/Cl)S(=O)Cc2ccccc2)cn1 (stereo not given) | 2.05 µM |
| CC(=O)N(Cc1ccc(F)cc1)C1=C(NCCc2ccccc2)C(=O)c2ccccc2C1=O | 4.13 µM |
| N#Cc1ccc(-c2csc(NNC(=O)c3ccc(Br)cc3)n2)cc1 | 15.6 µM |
| O=C(Nc1ccc([N+](=O)[O-])cc1)Nc1nc(-c2ccc(Cl)s2)cs1 | 1.88 µM |
| Oc1ccccc1/C=N/Nc1nc2ccccc2o1 | 4.62 µM |
| O=C(Nc1ccc(OCC(F)(F)C(F)F)c(C(F)(F)F)c1)c1ccccc1O | 6.48 µM |
| CC1(C)C(C=C(Cl)Cl)C1C(=O)Nc1ccc([N+](=O)[O-])cc1 (stereo not given) | 7.7 µM |
| Cc1ccc(C(=O)NC(=S)/C=C2\N(C)c3ccccc3C2(C)C)cc1 | 4.23 µM |
| CC[n+]1ccc(/C=C/c2c[nH]c3ccccc23)cc1 | 5.85 µM |
